Measurements from patent publication US20230049231A1 (priority 2019, published 2023).
pIC50: −log10 of the molar value.

Legend:
Kv1.3 potassium channel = target: T1, Kv1.3 potassium channel (Homo sapiens, UniProt P22001); assay: Kv1.3 potassium channel blocker activity, automated whole-cell patch clamp (Patchliner); type: cell-based
T1 construct: expressed in transfected cells
Method in brief: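 IC50 came from Hill-equation fits of peak and AUC currents from the final pulse at each concentration, normalized to compound-free control. Compounds applied consecutively at 30 nM to 100 μM (up to 0.3% DMSO) to Kv1.3-expressing CHO-K1 cells, P/4 leak subtraction. Pulses were +40 mV, 100 ms, from −90 mV holding, at 0.1 Hz on Patchliner.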

hERG channel = target: T2, hERG channel (Homo sapiens, UniProt Q12809); assay: hERG electrophysiology, automated whole-cell patch clamp (Patchliner); type: cell-based
T2 construct: expressed in transfected cells
Method in brief: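 Automated whole-cell patch clamp on CHO-K1 cells stably expressing hERG; 30 nM–100 μM applied cumulatively to the same cell, ≤0.3% DMSO. Pulses: −80 mV holding, +20 mV for 300 ms, −50 mV for 300 ms tail, 0.3 Hz, 70 per concentration. Last-pulse AUC and peak, normalized to control, were fitted to a Hill equation for IC50.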

[1] = CHO-K1 cells stably expressing Kv1.3, 100 ms pulses from -90 mV to +40 mV, 0.1 Hz
[2] = CHO-K1 cells stably expressing hERG, +20 mV 300 ms, -50 mV 300 ms tail current, 0.3 Hz
[3] = Kv1.3 potassium channel, whole-cell patch clamp
[4] = hERG channel, whole-cell patch clamp

T2 sequence (Q12809 whole entry): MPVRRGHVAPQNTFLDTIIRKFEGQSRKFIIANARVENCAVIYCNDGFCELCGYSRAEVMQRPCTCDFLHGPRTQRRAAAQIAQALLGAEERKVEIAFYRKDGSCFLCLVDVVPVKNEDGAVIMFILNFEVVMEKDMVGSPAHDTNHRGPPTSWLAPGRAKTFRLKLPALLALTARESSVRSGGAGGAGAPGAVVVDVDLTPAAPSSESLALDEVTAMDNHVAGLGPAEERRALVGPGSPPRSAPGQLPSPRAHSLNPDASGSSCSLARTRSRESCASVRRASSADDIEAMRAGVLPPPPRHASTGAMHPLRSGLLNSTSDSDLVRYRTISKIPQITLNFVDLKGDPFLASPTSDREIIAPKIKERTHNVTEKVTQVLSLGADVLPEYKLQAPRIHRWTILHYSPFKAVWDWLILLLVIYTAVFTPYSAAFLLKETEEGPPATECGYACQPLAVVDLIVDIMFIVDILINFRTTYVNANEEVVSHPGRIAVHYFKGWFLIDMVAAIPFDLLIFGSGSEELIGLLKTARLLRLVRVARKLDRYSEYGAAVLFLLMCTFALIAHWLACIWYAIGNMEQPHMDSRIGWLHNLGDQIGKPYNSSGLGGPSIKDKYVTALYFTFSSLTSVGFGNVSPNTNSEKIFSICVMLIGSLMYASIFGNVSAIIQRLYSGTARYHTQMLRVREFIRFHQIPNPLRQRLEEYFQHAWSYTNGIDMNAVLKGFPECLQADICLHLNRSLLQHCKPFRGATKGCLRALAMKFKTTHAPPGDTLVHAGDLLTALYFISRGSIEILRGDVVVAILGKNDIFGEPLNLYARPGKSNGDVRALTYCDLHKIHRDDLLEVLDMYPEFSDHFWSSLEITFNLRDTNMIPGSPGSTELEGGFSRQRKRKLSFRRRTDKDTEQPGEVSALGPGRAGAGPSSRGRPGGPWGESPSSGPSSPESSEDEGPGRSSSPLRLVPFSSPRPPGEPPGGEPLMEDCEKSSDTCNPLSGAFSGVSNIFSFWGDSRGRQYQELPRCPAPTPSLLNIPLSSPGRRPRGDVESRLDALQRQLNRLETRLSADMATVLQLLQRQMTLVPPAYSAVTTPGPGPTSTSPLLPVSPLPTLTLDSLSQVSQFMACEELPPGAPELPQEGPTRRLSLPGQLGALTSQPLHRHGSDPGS
T1 sequence (P22001 whole entry): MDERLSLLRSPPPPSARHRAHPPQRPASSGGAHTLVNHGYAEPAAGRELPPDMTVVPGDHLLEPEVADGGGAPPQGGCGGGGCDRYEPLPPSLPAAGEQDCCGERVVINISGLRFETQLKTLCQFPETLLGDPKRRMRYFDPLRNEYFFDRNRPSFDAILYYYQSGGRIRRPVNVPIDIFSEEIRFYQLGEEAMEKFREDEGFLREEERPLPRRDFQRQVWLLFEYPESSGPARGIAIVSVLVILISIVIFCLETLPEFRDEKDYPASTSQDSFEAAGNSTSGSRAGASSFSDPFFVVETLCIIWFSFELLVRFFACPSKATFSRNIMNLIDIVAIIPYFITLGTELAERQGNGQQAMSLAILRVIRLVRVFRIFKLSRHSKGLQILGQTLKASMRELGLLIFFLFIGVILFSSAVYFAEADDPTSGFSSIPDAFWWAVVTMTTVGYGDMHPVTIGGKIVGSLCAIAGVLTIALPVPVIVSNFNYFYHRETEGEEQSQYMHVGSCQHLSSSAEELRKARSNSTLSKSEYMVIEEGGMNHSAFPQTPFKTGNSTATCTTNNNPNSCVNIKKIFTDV

| Compound | pIC50 (Kv1.3 potassium channel; [1]) | pIC50 (Kv1.3 potassium channel; [3]) | pIC50 (hERG channel; [2]) | pIC50 (hERG channel; [4]) |
| --- | --- | --- | --- | --- |
| O=C1CNC[C@@H]2CC(c3c(O)ccc(Cl)c3Cl)CN12 (stereo partly drawn) [Compound 33, (8aS)-7-(2,3-dichloro-6-hydroxyphenyl)-hexahydro-1H-pyrrolo[1,2-a]pyrazin-4-one trifluoroacetic acid] | > 6.00 |  | > 4.52 |  |
| CNC(=O)N1CC(=O)N2C[C@@H](c3c(O)ccc(Cl)c3Cl)C[C@H]2C1 [Compound 37, (7R,8aS)-7-(2,3-dichloro-6-hydroxyphenyl)-N-methyl-4-oxo-hexahydropyrrolo[1,2-a]pyrazine-2-carboxamide] | > 6.00 |  | < 4.52 |  |
| NC(=O)N1CC(=O)N2C[C@@H](c3c(O)ccc(Cl)c3Cl)C[C@H]2C1 [Compound 55, (7R,8aS)-7-(2,3-dichloro-6-hydroxyphenyl)-4-oxo-hexahydropyrrolo[1,2-a]pyrazine-2-carboxamide] | > 6.00 |  | < 4.52 |  |
| C[C@@H](C1CNC1)N1CC(=O)N2C[C@@H](c3c(O)ccc(Cl)c3Cl)C[C@H]2C1 (single isomer, unassigned) [Compound 137] |  | > 6.00 |  | < 4.52 |
| O=C(CO)N1CC(=O)N2CC[C@@H](c3c(O)ccc(Cl)c3Cl)C[C@H]2C1 [Compound 63, (8R,9aS)-8-(2,3-dichloro-6-hydroxyphenyl)-2-(2-hydroxyacetyl)-hexahydro-1H-pyrido[1,2-a]pyrazin-4-one] |  | > 6.00 |  | > 4.52 |
| C[C@H](C1CNC1)N1CC(=O)N2C[C@@H](c3c(O)ccc(Cl)c3Cl)C[C@H]2C1 (single isomer, unassigned; isomer 2) [Compound 138] |  | > 6.00 |  | < 4.52 |
| O=C1CN(CCN2CCNCC2)C[C@@H]2C[C@H](c3c(O)ccc(Cl)c3Cl)CN12 [Compound 120, (7R,8aS)-7-(2,3-dichloro-6-hydroxyphenyl)-2-[2-(piperazin-1-yl)ethyl]-hexahydropyrrolo [1,2-a]pyrazin-4-one] |  | > 6.00 |  | < 4.52 |
| COC[C@H](O)C(=O)N1CC(=O)N2CC[C@@H](c3c(O)ccc(Cl)c3Cl)C[C@H]2C1 [Compound 44, (8R,9aS)-8-(2,3-dichloro-6-hydroxyphenyl)-2-[(2S)-2-hydroxy-3-methoxypropanoyl]-hexahydro-1H-pyrido[1,2-a]pyrazin-4-one] | > 6.00 |  | < 4.52 |  |
| C[C@H](CO)N1CC(=O)N2C[C@@H](c3c(O)ccc(Cl)c3Cl)C[C@H]2C1 (single isomer, unassigned) [Compound 116] |  | > 6.00 |  | < 4.52 |
| O=C1CN([C@@H]2C[C@@H](O)[C@@H](O)C2)C[C@@H]2C[C@H](c3c(O)ccc(Cl)c3Cl)CN12 (relative stereo) [Compound 131, (7R,8aS)-7-(2,3-dichloro-6-hydroxyphenyl)-2-[(1S,3R,4S)-rel-3,4-dihydroxycyclopentyl]-hexahydropyrrolo [1,2-a]pyrazin-4-one] |  | > 6.00 |  | < 4.52 |

Second part, led by results:

| pIC50 (Kv1.3 potassium channel; [1]) | pIC50 (Kv1.3 potassium channel; [3]) | Compound | pIC50 (hERG channel; [2]) | pIC50 (hERG channel; [4]) |
| --- | --- | --- | --- | --- |
|  | > 6.00 | O=C(NC1CNC1)[C@H]1CC(=O)N2C[C@@H](c3c(O)ccc(Cl)c3Cl)C[C@H]2C1 (single isomer, unassigned) [Compound 235] |  | < 4.52 |
|  | > 6.00 | NC(=O)[C@H]1OC(=O)N2C[C@@H](c3c(O)ccc(Cl)c3Cl)C[C@@H]12 (single isomer, unassigned) [Compound 287] |  | < 4.52 |
|  | > 6.00 | CC(C)(O)CN1CC(=O)N2C[C@@H](c3c(O)ccc(Cl)c3Cl)C[C@H]2C1 [Compound 148, (7R,8aS)-7-(2,3-dichloro-6-hydroxyphenyl)-2-(2-hydroxy-2-methylpropyl)-hexahydropyrrolo[1,2-a]pyrazin-4-one] |  | < 4.52 |
|  | > 6.00 | O=C1CN(C2COCC2O)C[C@@H]2C[C@H](c3c(O)ccc(Cl)c3Cl)CN12 (stereo partly drawn) [Compound 149, (7R,8aS)-7-(2,3-dichloro-6-hydroxyphenyl)-2-(4-hydroxyoxolan-3-yl)-hexahydropyrrolo[1,2-a]pyrazin-4-one] |  | < 4.52 |
|  | > 6.00 | O=C1C[C@H](N2CC[C@@H](O)C2)C[C@@H]2C[C@H](c3c(O)ccc(Cl)c3Cl)CN12 (single isomer, unassigned) [Compound 191] |  | > 4.52 |
|  | > 6.00 | O=C1CN([C@H]2CC[C@@H]2O)C[C@@H]2C[C@H](c3c(O)ccc(Cl)c3Cl)CN12 (relative stereo) [Compound 158, (7R,8aS)-7-(2,3-dichloro-6-hydroxyphenyl)-2-[(1R,2R)-rel-2-hydroxycyclobutyl]-hexahydropyrrolo[1,2-a]pyrazin-4-one] |  | < 4.52 |
|  | > 6.00 | CN[C@@H]1CC(=O)N2C[C@@H](c3c(O)ccc(Cl)c3Cl)C[C@H]2C1 (single isomer, unassigned) [Compound 198] |  | < 4.52 |
|  | > 6.00 | O=C1C[C@@H](N2CC(O)C2)C[C@@H]2C[C@H](c3c(O)ccc(Cl)c3Cl)CN12 (single isomer, unassigned) [Compound 196] |  | < 4.52 |
